Experimental findings from patent US20080234333A1, “Novel Hydroxamic Acid Derivative as Peptide Deformylase Inhibitor and Manufacturing Method Thereof” (priority 2005, published 2008) are described below.

By LD50 is commonly meant the dose expected to kill half of the subjects tested. The term MIC denotes the lowest concentration that inhibits growth of the organism.

The nature of data set [1]: Acute toxicity study in mice. The conditions noted are these: male, mouse, in vivo, 4000 mg/kg; ICR mice (♂, 4 weeks), oral 4,000 mg/kg dose, observed for 14 days. On the procedure: The acute toxicity of the compounds of Example 7, 13, 18 and 47 were tested using several groups of ICR mice each of 6 mice.
The test system of data set [2] is Streptococcus pneumoniae. Nature of the data set: MIC, microdilution method in 96-well plates. In kind it is cell-based. The conditions noted are these: read-out: MIC Streptococcus pneumoniae. On the procedure:
(§1) Minimum inhibitory concentrations (MICs) were determined using the microdilution method in 96-well format plates. Each of the compounds of Examples was dissolved in dimethyl sulfoxide to a concentration of 2 mg/mL and stored at 4° C. until used. They were diluted in Mueller-Hinton Broth (MHB) and used for MIC determination. The range of concentrations tested was […] final concentration using a two-fold dilution system. Plates were incubated at 37° C. and MIC were recorded after 24 hours of incubation for bacteria.
(§2) Linezolid and vancomycin were used as standard antibiotics, respectively.
On the technique in general: Broth dilution looks for growth in wells or tubes with falling amounts of substance.

Data set [3] deals with Vancomycin-resistant Enterococcus faecalis. Nature of the data set: MIC, microdilution method in 96-well plates. Format: cell-based. The conditions noted are these: read-out: MIC Vancomycin-resistant Enterococcus faecalis. On the procedure: as §1, §2
Data set [4] has as its system Methicillin-resistant Staphylococcus aureus. Nature of the data set: MIC, microdilution method in 96-well plates. The conditions noted are these: read-out: MIC Methicillin-resistant Staphylococcus aureus. Format: cell-based. On the procedure:
as §1, §2

Data set [5] relates to Streptococcus agalactiae. Put plainly: MIC, microdilution method in 96-well plates. In kind it is cell-based. The conditions noted are these: read-out: MIC Streptococcus agalactiae. On the procedure:
as §1, §2

The subject of data set [6] is Streptococcus pyogenes. Put plainly: MIC, microdilution method in 96-well plates. Format: cell-based. The note with it: read-out: MIC Streptococcus pyogenes. On the procedure:
as §1, §2

Where [7] appears, read: Mueller-Hinton Broth, 37° C., 24 hours of incubation.

Converted amounts (≈) assume the structure as drawn. Where two headings read alike, the source gives them in different places.

For `CC(C)C[C@H](CC(=O)NO)C(=O)N[C@H](C(=O)N1CCC(NC(=O)Cc2ccccc2)CC1)C(C)(C)C` [Example 7, (R)-N^1-[(S)-2,2-Dimethyl-1-(4-phenylacetylamino-piperidine-1-carbonyl)-propyl]-N^4-hydroxy-2-isobutyl-succinamide], the 50% lethal dose (LD50) at 14 days in data set [1] was greater than 4000 mg/kg.
Consider `CC(C)(C)[C@H](NC(=O)[C@@H](CC(=O)NO)CC1CCCC1)C(=O)N1CCC(NC(=O)c2ccc(C(F)(F)F)cc2)CC1` [Example 13, (R)-2-Cyclopentylmethyl-N^1-{(S)-2,2-dimethyl-1-[4-(4-trifluoromethyl-benzoylamino)-piperidine-1-carbonyl]-propyl}-N^4-hydroxy-succinamide], for which the MIC in data set [2] (setting [7]) turned out to be 3.1 µg/mL (≈ 5.32 µM); in data set [3] (setting [7]), 6.3 µg/mL (≈ 10.8 µM); in data set [4] (setting [7]), 12.5 µg/mL (≈ 21.5 µM); in data set [5] (setting [7]), 0.2 µg/mL (≈ 0.343 µM); in data set [6] (setting [7]) it was 0.4 µg/mL (≈ 0.687 µM). In data set [1], this compound yielded an LD50 at 14 days greater than 4000 mg/kg.
As for `CCCC[C@H](CC(=O)NO)C(=O)N[C@H](C(=O)N1CCC(NC(=O)c2ccc(C)cc2)CC1)C(C)(C)C` [Example 18, (R)-2-Butyl-N^1-{(S)-2,2-dimethyl-1-[4-(4-methyl-benzoylamino)-piperidine-1-carbonyl]-propyl}-N^4-hydroxy-succinamide], the LD50 at 14 days in data set [1] is greater than 4000 mg/kg.
Same read-out and setting: the same measure for `Cc1ccc(NC(=O)NC2CCN(C(=O)[C@@H](NC(=O)[C@H](CC3CCCC3)CN(O)C=O)C(C)(C)C)CC2)cc1` [Example 47, (R)-2-Cyclopentylmethyl-N-{(S)-2,2-dimethyl-1-[4-(3-p-tolyl-ureido)-piperidine-1-carbonyl]-propyl}-3-(formyl-hydroxy-amino)-propionamide]: greater than 4000 mg/kg.
For the compound `CC(=O)NC[C@H]1CN(c2ccc(N3CCOCC3)c(F)c2)C(=O)O1` [Linezolid, reference compound], the MIC in data set [2] (setting [7]) amounted to 0.8 µg/mL (≈ 2.37 µM); in data set [3] (setting [7]) it was 0.8 µg/mL (≈ 2.37 µM); in data set [4] (setting [7]) it was 1.6 µg/mL (≈ 4.74 µM); in data set [5] (setting [7]), 1.6 µg/mL (≈ 4.74 µM); in data set [6] (setting [7]) it was 0.8 µg/mL (≈ 2.37 µM).
As for `CN[C@H](CC(C)C)C(=O)N[C@H]1C(=O)N[C@@H](CC(N)=O)C(=O)N[C@H]2C(=O)N[C@H]3C(=O)N[C@H](C(=O)N[C@H](C(=O)O)c4cc(O)cc(O)c4-c4cc3ccc4O)[C@H](O)c3ccc(c(Cl)c3)Oc3cc2cc(c3O[C@@H]2O[C@H](CO)[C@@H](O)[C@H](O)[C@H]2O[C@H]2C[C@](C)(N)[C@H](O)[C@H](C)O2)Oc2ccc(cc2Cl)[C@H]1O` [Vancomycin, reference compound], the MIC is 0.8 µg/mL (≈ 0.552 µM) in data set [2] (24 h); greater than 100 µg/mL in data set [3] (24 h); 3.1 µg/mL (≈ 2.14 µM) in data set [4] (24 h); 1.6 µg/mL (≈ 1.1 µM) in data set [5] (24 h); 0.8 µg/mL (≈ 0.552 µM) in data set [6] (24 h).
